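Results reflect a 48-hour exposure of cells in 96-well plates to compound at five concentrations. The concentration for full growth arrest is given as TGI.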
Assays:
Assay in all cases: NCI-60 cell line screen, 48 h
PC-3 prostate = system: PC-3 prostate
MCF7 breast = system: MCF7 breast
SF-295 CNS = system: SF-295 CNS
T-47D breast = system: T-47D breast
EKVX NSCLC = system: EKVX NSCLC
HT29 colon = system: HT29 colon
OVCAR-4 ovarian = system: OVCAR-4 ovarian
A549 NSCLC = system: A549 NSCLC
TK-10 renal = system: TK-10 renal
OVCAR-5 ovarian = system: OVCAR-5 ovarian
UACC-257 melanoma = system: UACC-257 melanoma
MOLT-4 leukemia = system: MOLT-4 leukemia
COLO 205 colon = system: COLO 205 colon
CCRF-CEM leukemia = system: CCRF-CEM leukemia
RPMI-8226 leukemia = system: RPMI-8226 leukemia
SN12C renal = system: SN12C renal
M14 melanoma = system: M14 melanoma
OVCAR-3 ovarian = system: OVCAR-3 ovarian
HOP-92 NSCLC = system: HOP-92 NSCLC
SNB-75 CNS = system: SNB-75 CNS
DU-145 prostate = system: DU-145 prostate
K-562 leukemia = system: K-562 leukemia
SK-OV-3 ovarian = system: SK-OV-3 ovarian
MDA-MB-435 = system: MDA-MB-435
HCC-2998 colon = system: HCC-2998 colon
HOP-62 NSCLC = system: HOP-62 NSCLC
HCT-15 colon = system: HCT-15 colon
MDA-N = system: MDA-N
SW-620 colon = system: SW-620 colon
SF-539 CNS = system: SF-539 CNS
HL-60(TB) leukemia = system: HL-60(TB) leukemia
NCI-H23 lung = system: NCI-H23 lung
BT-549 breast = system: BT-549 breast
CAKI-1 renal = system: CAKI-1 renal
SK-MEL-28 melanoma = system: SK-MEL-28 melanoma
MDA-MB-231 breast = system: MDA-MB-231 breast
MALME-3M melanoma = system: MALME-3M melanoma
NCI/ADR-RES ovarian = system: NCI/ADR-RES ovarian
SK-MEL-2 melanoma = system: SK-MEL-2 melanoma
SF-268 CNS = system: SF-268 CNS
HCT-116 colon = system: HCT-116 colon
RXF 393 renal = system: RXF 393 renal
NCI-H226 lung = system: NCI-H226 lung
LOX IMVI melanoma = system: LOX IMVI melanoma
SK-MEL-5 melanoma = system: SK-MEL-5 melanoma
A498 renal = system: A498 renal
OVCAR-8 ovarian = system: OVCAR-8 ovarian
IGROV1 ovarian = system: IGROV1 ovarian
KM12 colon = system: KM12 colon
786-0 renal = system: 786-0 renal
UACC-62 melanoma = system: UACC-62 melanoma
U251 CNS = system: U251 CNS
UO-31 renal = system: UO-31 renal
SNB-19 CNS = system: SNB-19 CNS
NCI-H460 lung = system: NCI-H460 lung
ACHN renal = system: ACHN renal
SR leukemia = system: SR leukemia

With CO/C(N)=C(\C#N)N=Cc1cccnc1 the TGI (PC-3 prostate) was > 100 µM, the TGI (MCF7 breast) was > 100 µM and the TGI (SF-295 CNS) was > 100 µM. The TGI (T-47D breast) was > 100 µM, the TGI (EKVX NSCLC) was > 100 µM and the TGI (HT29 colon) was > 100 µM. The TGI (OVCAR-4 ovarian) was > 100 µM, the TGI (A549 NSCLC) was > 100 µM and the TGI (TK-10 renal) was > 100 µM. For the same compound, the TGI (OVCAR-5 ovarian) was > 100 µM, the TGI (UACC-257 melanoma) was > 100 µM and the TGI (MOLT-4 leukemia) was > 100 µM. For the same compound, the TGI (COLO 205 colon) was > 100 µM, the TGI (CCRF-CEM leukemia) was > 100 µM and the TGI (RPMI-8226 leukemia) was > 100 µM. For the same compound, the TGI (SN12C renal) was > 100 µM, the TGI (M14 melanoma) was > 100 µM and the TGI (OVCAR-3 ovarian) was > 100 µM. The TGI (HOP-92 NSCLC) was > 100 µM, the TGI (SNB-75 CNS) was > 100 µM and the TGI (DU-145 prostate) was > 100 µM. The TGI (K-562 leukemia) was > 100 µM, the TGI (SK-OV-3 ovarian) was > 100 µM and the TGI (MDA-MB-435) was > 100 µM. For the same compound, the TGI (HCC-2998 colon) was > 100 µM, the TGI (HOP-62 NSCLC) was > 100 µM and the TGI (HCT-15 colon) was > 100 µM. For the same compound, the TGI (MDA-N) was > 100 µM, the TGI (SW-620 colon) was > 100 µM and the TGI (SF-539 CNS) was > 100 µM. For the same compound, the TGI (HL-60(TB) leukemia) was > 100 µM, the TGI (NCI-H23 lung) was > 100 µM and the TGI (BT-549 breast) was > 100 µM. The TGI (CAKI-1 renal) was > 100 µM, the TGI (SK-MEL-28 melanoma) was > 100 µM and the TGI (MDA-MB-231 breast) was > 100 µM. For the same compound, the TGI (MALME-3M melanoma) was > 100 µM, the TGI (NCI/ADR-RES ovarian) was > 100 µM and the TGI (SK-MEL-2 melanoma) was > 100 µM. For the same compound, the TGI (SF-268 CNS) was > 100 µM, the TGI (HCT-116 colon) was > 100 µM and the TGI (RXF 393 renal) was > 100 µM. The TGI (NCI-H226 lung) was > 100 µM, the TGI (LOX IMVI melanoma) was > 100 µM and the TGI (SK-MEL-5 melanoma) was > 100 µM. For the same compound, the TGI (A498 renal) was > 100 µM, the TGI (OVCAR-8 ovarian) was > 100 µM and the TGI (IGROV1 ovarian) was > 100 µM. For the same compound, the TGI (KM12 colon) was > 100 µM, the TGI (786-0 renal) was > 100 µM and the TGI (UACC-62 melanoma) was > 100 µM. For the same compound, the TGI (U251 CNS) was > 100 µM.

In the case of COc1ccc(Cc2nc3cc([N+](=O)[O-])ccc3n2C[C@@H]2CCCN3CCCCC23)cc1 (stereo partly drawn), the TGI (PC-3 prostate) is reported as > 100 µM, the TGI (UO-31 renal) is reported as 21.1 µM and the TGI (MCF7 breast) is reported as > 100 µM. For the same compound, the TGI (SF-295 CNS) was 35.8 µM, the TGI (T-47D breast) was > 100 µM and the TGI (EKVX NSCLC) was 76.5 µM. The TGI (HT29 colon) was 38.4 µM, the TGI (OVCAR-4 ovarian) was 61.3 µM and the TGI (A549 NSCLC) was 35 µM. It also gave a TGI (TK-10 renal) of 92.8 µM, a TGI (OVCAR-5 ovarian) of 82 µM and a TGI (UACC-257 melanoma) of 31.5 µM. It also gave a TGI (MOLT-4 leukemia) of 60.1 µM, a TGI (COLO 205 colon) of 27 µM and a TGI (CCRF-CEM leukemia) of 29.2 µM. It also gave a TGI (M14 melanoma) of 27.2 µM, a TGI (OVCAR-3 ovarian) of 41.1 µM and a TGI (HOP-92 NSCLC) of 76.8 µM. The TGI (SNB-75 CNS) was > 100 µM, the TGI (DU-145 prostate) was > 100 µM and the TGI (K-562 leukemia) was 57.6 µM. It also gave a TGI (SK-OV-3 ovarian) of 46.4 µM, a TGI (MDA-MB-435) of 38.1 µM and a TGI (HCC-2998 colon) of 34.1 µM. For the same compound, the TGI (HOP-62 NSCLC) was 43.6 µM, the TGI (SNB-19 CNS) was 84.8 µM and the TGI (HCT-15 colon) was 56.5 µM. For the same compound, the TGI (MDA-N) was 33.8 µM, the TGI (SW-620 colon) was 81.8 µM and the TGI (HL-60(TB) leukemia) was 19 µM. For the same compound, the TGI (NCI-H23 lung) was 87.2 µM, the TGI (BT-549 breast) was 37.5 µM and the TGI (CAKI-1 renal) was 45.3 µM. The TGI (SK-MEL-28 melanoma) was 35.1 µM, the TGI (MDA-MB-231 breast) was 43 µM and the TGI (MALME-3M melanoma) was 32.1 µM. The TGI (NCI/ADR-RES ovarian) was 60.6 µM, the TGI (NCI-H460 lung) was > 100 µM and the TGI (SK-MEL-2 melanoma) was 33.2 µM. The TGI (HCT-116 colon) was 38.2 µM, the TGI (RXF 393 renal) was 39.8 µM and the TGI (NCI-H226 lung) was > 100 µM. It also gave a TGI (LOX IMVI melanoma) of 36.4 µM, a TGI (SK-MEL-5 melanoma) of 27.9 µM and a TGI (A498 renal) of 35.2 µM. The TGI (OVCAR-8 ovarian) was > 100 µM, the TGI (IGROV1 ovarian) was 48.1 µM and the TGI (ACHN renal) was > 100 µM. The TGI (KM12 colon) was 29.8 µM, the TGI (786-0 renal) was 40 µM and the TGI (UACC-62 melanoma) was 31.3 µM. It also gave a TGI (U251 CNS) of 50.6 µM.

For CCNC(=S)NNC(=O)c1csc(NC(=S)NC2CCCCC2)n1, the TGI (PC-3 prostate) was 64.5 µM, the TGI (UO-31 renal) was 23.1 µM and the TGI (MCF7 breast) was > 100 µM. For the same compound, the TGI (SF-295 CNS) was 40.7 µM, the TGI (T-47D breast) was 53.7 µM and the TGI (EKVX NSCLC) was > 100 µM. The TGI (HT29 colon) was > 100 µM, the TGI (OVCAR-4 ovarian) was 56.9 µM and the TGI (A549 NSCLC) was 67.8 µM. The TGI (TK-10 renal) was > 100 µM, the TGI (OVCAR-5 ovarian) was > 100 µM and the TGI (UACC-257 melanoma) was 27.3 µM. For the same compound, the TGI (MOLT-4 leukemia) was 63.5 µM, the TGI (COLO 205 colon) was 21.9 µM and the TGI (CCRF-CEM leukemia) was > 100 µM. For the same compound, the TGI (RPMI-8226 leukemia) was 71.6 µM, the TGI (SN12C renal) was 17.3 µM and the TGI (M14 melanoma) was 27.1 µM. The TGI (OVCAR-3 ovarian) was 16.2 µM, the TGI (DU-145 prostate) was 45.8 µM and the TGI (SK-OV-3 ovarian) was 62.3 µM. It also gave a TGI (MDA-MB-435) of 21.1 µM, a TGI (HCC-2998 colon) of 23.8 µM and a TGI (HOP-62 NSCLC) of 32.4 µM. The TGI (SNB-19 CNS) was > 100 µM, the TGI (HCT-15 colon) was 37.2 µM and the TGI (MDA-N) was 15.8 µM. The TGI (SW-620 colon) was 19.2 µM, the TGI (SF-539 CNS) was 22.8 µM and the TGI (NCI-H23 lung) was > 100 µM. It also gave a TGI (BT-549 breast) of 36.6 µM, a TGI (CAKI-1 renal) of 31.1 µM and a TGI (MDA-MB-231 breast) of 24.9 µM. For the same compound, the TGI (NCI/ADR-RES ovarian) was 42.4 µM, the TGI (NCI-H460 lung) was 35.2 µM and the TGI (SK-MEL-2 melanoma) was 29.3 µM. The TGI (SF-268 CNS) was 31.4 µM, the TGI (HCT-116 colon) was 18.8 µM and the TGI (NCI-H226 lung) was > 100 µM. For the same compound, the TGI (LOX IMVI melanoma) was 21.4 µM, the TGI (SK-MEL-5 melanoma) was 15.5 µM and the TGI (A498 renal) was 40 µM. The TGI (OVCAR-8 ovarian) was 28.1 µM, the TGI (ACHN renal) was 89.8 µM and the TGI (SR leukemia) was > 100 µM. For the same compound, the TGI (KM12 colon) was 28 µM, the TGI (786-0 renal) was 25.6 µM and the TGI (UACC-62 melanoma) was 27.7 µM. The TGI (U251 CNS) was 23.7 µM.
